The record followed here is the PolyMetriX glass transition set.

In turn, `*C(=O)N1C(=O)N(C(=O)c2ccc3c(c2)C(=O)N(c2ccc(Oc4ccc(N5C(=O)c6ccc(*)cc6C5=O)cc4)cc2)C3=O)C(CC)(CC)C1=O` (repeat unit) yielded a glass transition temperature of 160.00 °C.

Regarding `*C(=O)Oc1ccc(C2(c3ccc(OC(=O)c4ccc5c(c4)C(=O)N(c4ccc(-c6ccc(N7C(=O)c8ccc(*)cc8C7=O)cc6C)c(C)c4)C5=O)cc3)CC3CC2C2CCCC32)cc1` (repeat unit), the glass transition temperature worked out at 226.00 °C. `*C(=O)c1cc(C(=O)c2ccc3c(c2)C(=O)N(c2ccc(Oc4ccc(N5C(=O)c6ccc(*)cc6C5=O)cc4)cc2)C3=O)cc(C(C)(C)C)c1` (repeat unit) yielded a glass transition temperature of 252.50 °C. `*C(=O)c1ccc(Oc2ccc(Oc3ccc(C(=O)c4ccc5c(c4)C(=O)N(c4ccc(Oc6ccc(N7C(=O)c8ccc(*)cc8C7=O)cc6)cc4)C5=O)cc3)cc2)cc1` (repeat unit): the glass transition temperature was found to be 220.00 °C. `*C(=O)c1ccc2c(c1)C(=O)N(c1ccc(Oc3ccc(N4C(=O)c5ccc(*)cc5C4=O)cc3Br)c(Br)c1)C2=O` (repeat unit) registered a glass transition temperature of 296.00 °C.

With `*CCCCCCCCCCCN1C(=O)c2ccc(-c3ccc(-c4ccc5c(c4)C(=O)N(*)C5=O)cc3)cc2C1=O` (repeat unit), the glass transition temperature was 89.00 °C.

For `*CCCCCCCCCCOc1ccc(/C=N/c2ccc(-c3ccc(/N=C/c4ccc(O*)cc4O)c(OC)c3)cc2OC)c(O)c1` (repeat unit), the glass transition temperature is 72.00 °C. The same measure for `*CCCCCCCCN1C(=O)c2ccc(-c3ccc(-c4ccc5c(c4)C(=O)N(*)C5=O)cc3)cc2C1=O` (repeat unit): 120.00 °C; for `*CCCCCCOC(=O)c1cc(/N=N/c2ccc(OCC)cc2)ccc1-c1ccc(/N=N/c2ccc(OCC)cc2)cc1C(=O)O*` (repeat unit): 83.00 °C; for `*CCCCCCn1ccc(-c2ccc(-c3ccn(*)n3)cc2)n1` (repeat unit): 55.00 °C. Compound `*Oc1ccc(-c2ccc(Oc3ccc(-c4ccc(-c5ccc(*)c(C(F)(F)F)c5)cc4)cc3C(F)(F)F)cc2)cc1` (repeat unit) yielded a glass transition temperature of 203.50 °C. The same measure for `*c1ccc(-c2cc(-c3ccc(OCCCC#N)cc3)cc(-c3ccc(-n4c(=O)c5cc6c(=O)n(*)c(=O)c6cc5c4=O)cc3)n2)cc1` (repeat unit): 345.00 °C. As for `*c1ccc(-c2cc(-c3ccc(OCCCCCC)cc3)cc(-c3ccc(-c4ccc5c(c4)C(CCCCCC)(CCCCCC)c4cc(*)ccc4-5)cc3)c2-c2ccc(OCCCCCC)cc2)cc1` (repeat unit), the glass transition temperature was determined as 118.00 °C. As for `*c1ccc(-c2cc(-c3ccc(OCCCCCCCCCCCC)cc3)cc(-c3ccc(-c4ccc5c(c4)C(CCCCCC)(CCCCCC)c4cc(*)ccc4-5)cc3)c2-c2ccc(OCCCCCCCCCCCC)cc2)cc1` (repeat unit), the glass transition temperature is 79.00 °C.

For the compound `*c1ccc(-c2cc(CCCCCC)c(-c3ccc(-c4ccc5ccc6ccc(*)nc6c5n4)cc3)cc2CCCCCC)cc1` (repeat unit), the glass transition temperature was 190.00 °C. In turn, `*c1ccc(-c2ccc(N3C(=O)c4c(c(-c5ccccc5)c(-c5ccc(Oc6ccc(-c7c(-c8ccccc8)c8c(c(-c9ccccc9)c7-c7ccccc7)C(=O)N(*)C8=O)cc6)cc5)c(-c5ccccc5)c4-c4ccccc4)C3=O)cc2)cc1` (repeat unit) came in with a glass transition temperature of 399.00 °C. For `*c1ccc(-c2ccc(N3C(=O)c4ccc(-c5cccc6c5C(=O)N(*)C6=O)cc4C3=O)cc2C)c(C)c1` (repeat unit), the glass transition temperature is 372.00 °C. Compound `*c1ccc(-c2ccc([Si](C)(C)[Si](*)(C)C)s2)s1` (repeat unit) showed a glass transition temperature of 45.00 °C.

Turning to `*c1ccc(-c2ccc3c(c2)C(CCCCCCCC)(CCCCCCCC)c2cc(*)ccc2-3)cc1` (repeat unit), the glass transition temperature was found to be 81.00 °C. For the compound `*c1ccc(-c2cnc3cc4ncc(*)nc4cc3n2)cc1` (repeat unit), the glass transition temperature was 392.00 °C. `*c1ccc(-c2nc3cc4nc(*)c(-c5ccccc5)nc4cc3nc2-c2ccccc2)cc1` (repeat unit): the glass transition temperature worked out at 395.00 °C.

Turning to `*c1ccc(-c2nc3ccc(-c4ccc5nc(*)c(-c6ccccc6)c(-c6ccccc6)c5c4)cc3c(-c3ccccc3)c2-c2ccccc2)cc1` (repeat unit), the glass transition temperature came to 400.00 °C. Next, `*c1ccc(-c2nnc(*)o2)c(OCC)c1` (repeat unit): 231.00 °C; `*c1ccc(-c2nnc(*)o2)c(OCCCCCCCCCC)c1` (repeat unit): 165.00 °C. In the case of `*c1ccc(-c2sc(-c3cc(CCCCCCCC)c(*)s3)cc2CCCCCCCC)cc1` (repeat unit), the glass transition temperature was determined as 50.40 °C. Regarding `*c1ccc(-c2sc(-c3cc(SCCCC)c(*)s3)cc2SCCCC)cc1` (repeat unit), the glass transition temperature came out at 129.00 °C. `*c1ccc(-c2sc(-c3cc(SCCCCCCCC)c(*)s3)cc2SCCCCCCCC)cc1` (repeat unit) came in with a glass transition temperature of 55.30 °C. In turn, `*c1ccc(-c2sc(-c3ccc(-c4cc(CCCC)c(*)s4)cc3)cc2CCCC)cc1` (repeat unit) came in with a glass transition temperature of 58.30 °C. In turn, `*c1ccc(-c2sc(-c3ccc(-c4cc(SCCCC)c(*)s4)cc3)cc2SCCCC)cc1` (repeat unit) registered a glass transition temperature of 26.40 °C. The same measure for `*c1ccc(-n2c(=O)c3cc4c(=O)n(*)c(=O)c4cc3c2=O)cc1` (repeat unit): 417.00 °C. In turn, `*c1ccc(/C=N/c2ccc(C(c3ccccc3)c3ccc(/N=C/c4ccc(-c5ccc(*)s5)cc4)cc3)cc2)cc1` (repeat unit) had a glass transition temperature of 129.00 °C. For `*c1ccc(C(c2ccc(-c3nc4ccc(-c5ccc6nc(*)[nH]c6c5)cc4[nH]3)cc2)(C(F)(F)F)C(F)(F)F)cc1` (repeat unit), the glass transition temperature amounted to 269.00 °C. The same measure for `*c1ccc(C(c2ccccc2)(c2ccc(-c3nc4ccc(-c5ccc6nc(*)oc6c5)cc4o3)cc2)C(F)(F)F)cc1` (repeat unit): 350.00 °C.

Take `*c1ccc(N(c2ccc(C#N)cc2)c2ccc(-n3c(=O)c4cc5c(=O)n(*)c(=O)c5cc4c3=O)cc2)cc1` (repeat unit): the glass transition temperature amounted to 353.00 °C. The same measure for `*c1ccc([Si](c2ccccc2)(c2ccccc2)c2ccc(-c3nnc(-c4ccc(-c5nnc(*)o5)nc4)o3)cc2)cc1` (repeat unit): 272.00 °C; for `*c1ccc([Si](c2ccccc2)(c2ccccc2)c2ccc(-c3nnc(-c4ccc(-c5nnc(*)o5)o4)o3)cc2)cc1` (repeat unit): 276.00 °C. The same measure for `*c1ccc([Si](c2ccccc2)(c2ccccc2)c2ccc(-c3nnc(-c4cccc(-c5nnc(*)o5)n4)o3)cc2)cc1` (repeat unit): 265.00 °C; for `*c1ccc([Si](c2ccccc2)(c2ccccc2)c2ccc(-c3nnc(-c4cncc(-c5nnc(*)o5)c4)o3)cc2)cc1` (repeat unit): 272.00 °C.

Turning to `*c1cccc(Cc2cccc(N3C(=O)c4ccc([Si](C)(C)c5ccc(-c6ccc([Si](C)(C)c7ccc8c(c7)C(=O)N(*)C8=O)cc6)cc5)cc4C3=O)c2)c1` (repeat unit), the glass transition temperature is 285.00 °C.
